# Paper PMC7203344, “Sirtuin 1 Inhibiting Thiocyanates (S1th)—A New Class of Isotype Selective Inhibitors of NAD^+ Dependent Lysine Deacetylases” (Frontiers in Oncology, 2020)
# What was measured:
# Sirt1 = biological target: T1, Sirt1 (Homo sapiens, UniProt Q96EB6); assay: Homogeneous ZMAL-based fluorescence assay, Sirt1; assay type: biochemical; settings: 4th round
# T1 construct: made in house; host or cells: E. coli BL21 Star (DE3)
# T1 sequence (Q96EB6 134-747): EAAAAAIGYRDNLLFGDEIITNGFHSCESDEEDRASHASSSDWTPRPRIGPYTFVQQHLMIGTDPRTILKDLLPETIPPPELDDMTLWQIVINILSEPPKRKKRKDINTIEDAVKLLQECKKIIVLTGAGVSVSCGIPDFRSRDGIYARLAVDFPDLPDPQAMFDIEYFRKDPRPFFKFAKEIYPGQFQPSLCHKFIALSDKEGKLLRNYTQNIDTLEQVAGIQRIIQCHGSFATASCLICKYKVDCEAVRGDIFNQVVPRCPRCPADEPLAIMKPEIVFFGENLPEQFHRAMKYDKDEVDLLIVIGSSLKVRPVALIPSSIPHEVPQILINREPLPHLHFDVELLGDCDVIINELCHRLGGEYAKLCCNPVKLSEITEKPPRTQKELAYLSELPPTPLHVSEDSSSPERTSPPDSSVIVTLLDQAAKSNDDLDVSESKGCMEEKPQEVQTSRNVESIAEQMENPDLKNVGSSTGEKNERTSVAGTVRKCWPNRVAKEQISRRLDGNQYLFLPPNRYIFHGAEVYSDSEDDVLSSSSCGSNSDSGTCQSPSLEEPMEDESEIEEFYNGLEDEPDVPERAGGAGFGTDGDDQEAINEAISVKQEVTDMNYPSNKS
# Description: Recombinant human Sirt5_37−310 was purchased readily in Tris Buffer [25 mM Tris, 100 mM NaCl, 5 mM DTT, 10% glycerol (v/v)] from Enzo Life Sciences (NY, USA). Human Sirt3_118−395 was expressed and purified as described previously ([54]). For expression of human Sirt1_134−747 and Sirt2_56−356 chemically competent cells of E. coli BL21 Star (DE3) were transformed with the expression vectors pET30S-hSirt1_134−747 or pET30S-hSirt2_56−356. Bacteria were grown at 37°C in 2×YT medium supplemented with 50 μg·mL^−1 of kanamycin to an OD600 of 0.6. Then isopropyl-β-D-1-thiogalactopyranoside (IPTG) was added to a final concentration of 1 mM to induce gene expression. After further cultivation at 20°C for 12 h, the cells were harvested by centrifugation for 15 min at 5,000 g. The cells were resuspended in lysis buffer [100 mM Tris/HCl buffer at pH 8.0, 150 mM NaCl and 10% (v/v) glycerol] and disrupted by ultrasonication (Branson Digital Sonifier 250) at 70% amplitude for 10 min (3 s working, 10 s pause). The crude extract was cleared by centrifugation at 100,000 g for 1 h, and the supernatant was loaded onto a Strep-Tactin Superflow cartridge (5 ml bed volume, IBA Lifescience, Germany). Target proteins were eluted with lysis buffer containing 5 mM D-Desthiobiotin (IBA Lifescience, Germany) and further separated by size-exclusion chromatography (Superdex S200 26/60, GE Healthcare, IL, USA) equilibrated in Tris/HCl buffer (20 mM, 150 mM NaCl, pH 8.0). Pure protein was concentrated by ultrafiltration, flash-frozen in liquid nitrogen and stored at −80°C until further use. Identity as well as purity were verified by SDS-PAGE ([55]) and protein concentration was determined by the bicinchoninic acid (BCA) method, using bovine serum albumin (BSA) as a standard ([56]). Deacetylase activity was confirmed to be NAD^+-dependent and could be inhibited with the physiological sirtuin inhibitor nicotinamide.
# All compounds were tested in the trypsin-coupled high-throughput ZMAL-assay in black 96-well plates (OptiPlateTM−96F, black, 96 well, Pinch bar design, PerkinElmer, USA), using ZMAL (Z-Lys(acetyl)-AMC) as a substrate ([57]). Sirt1_134−747, Sirt2_56−356, and Sirt3_118−395 were mixed with 5 μL substrate (10.5 μM final assay concentration, diluted from a […] stock in DMSO) and 3 μL Inhibitor in DMSO at various concentrations or DMSO as a control [final DMSO concentration 5% (v/v)]. The mixture was supplemented with assay buffer (50 mM Tris/HCl, 137 mM NaCl, 2.7 mM KCl, 1 mM MgCL2, pH 8.0) to a total volume of 55 μL. Enzyme concentration was adjusted to get a final conversion of 20–30%. Addition of 5 μL NAD^+ (6 mM in assay buffer, final assay concentration of 500 μM) initiated the catalytic reaction and the plates were incubated at 37°C for 4 h with agitation at 140 rpm. The catalytic reaction was stopped by addition of 60 μL stop solution [50 mM Tris, 100 mM NaCl, 6.7% (V/V) DMSO, 5.5 U/μL trypsin, 8 μM nicotinamide, pH 8.0]. The plate was again incubated at 37°C and 140 rpm for 20 min to release free AMC from the deacetylated substrate by trypsin digestion. Afterwards, fluorescence intensity was measured in a microplate reader (λEx = 390 nm, λEm = 460 nm, BMG POLARstar Optima, BMG Labtech, Germany). An enzyme-free blank control and a 100% conversion control containing AMC instead of ZMAL were measured in addition. Inhibition was calculated in % in relation to a DMSO control after blank signal subtraction and IC50 values were determined using a non-linear regression to fit the dose-response curve with OriginPro 9G (OriginLab, USA). Pre-tests as well as IC50 determination was carried out at least twice in duplicates.
# [1] = system: H3K9ac and p53K382ac in HeLa cells; assay: Analysis of acetylation status in HeLa cells by western blotting; assay type: cell-based, human; settings: 48 h; concentrations as in proliferation assay
# Description: 5 × 10^4 cells were plated in 6-well plates and grown with the conditions and drug concentrations as described for the proliferation assay. Cells were harvested at 48 h and resuspendend in protein loading buffer. After sonication the samples were centrifuged at 14,000 rpm in an Eppendorf microcentrifuge (Eppendorf, DE) and the supernatants were analyzed by western-blot. The following antibodies were used: histone H3 (Cell Signaling #9715), histone H3K9ac (Cell Signaling # C5B11), GAPDH (Cell Signaling #D16H11), p53 (ThermoFisher #PA527822), and p53K382ac (Abcam 75754). Quantification was carried out using imageJ.
Structure (SMILES),IC50 (Sirt1),H3K9 acetylation in HeLa cells [1],p53K382 acetylation in HeLa cells [1]
"N#CSc1cc(SC#N)c(N)nc1N [PR-619, reference compound]",2.7 ± 0.2 µM,,
N#CSc1cccc(NC(=O)[C@H]2CC=CC[C@H]2C(=O)O)c1 [S1th 10],23 ± 6 µM,clear effect on acetylation,clear effect on acetylation
CCCCNC(=O)Nc1cccc(SC#N)c1 [S1th 11],6.3 ± 0.8 µM,,
COc1ccc(SC#N)cc1OCC(=O)N(CCC#N)CCC#N [S1th 12],5.9 ± 1.4 µM,clear effect on acetylation,clear effect on acetylation
N#CSc1cccc(NS(=O)(=O)c2ccc3c(c2)OCCO3)c1 [S1th 13],5.2 ± 1 µM,clear effect on acetylation,clear effect on acetylation
